Where two headings read alike, the source gives them in different places.
How the values were obtained:
Type in all cases: cell-based, human
[1] = tested on: HTT mRNA; test: RT-qPCR splicing assay, HTT canonical (CJ) and alternative (AJ) junction mRNA; conditions: Homo sapiens; for AC50: read-out: HTT AJ (AC50, increase in AJ mRNA)
Experimental: (§1) Compounds described herein were used to modulate RNA transcript abundance in cells. The expression of a target mRNA was measured by detecting the formation of an exon-exon junction in the canonical transcript (CJ). A compound mediated exon-inclusion event was detected by observing an increase in formation of a new junction with an alternative exon (AJ). Real-time qPCR assays were used to detect these splicing switches and interrogate the potency of various compounds towards different target genes. A high-throughput real time quantitative PCR (RT-qPCR) assay was developed to measure these two isoforms of the mRNA (CJ and AJ) for exemplary genes, such as HTT, SMN2, and MYB, together with a control housekeeping gene, GAPDH or GUSB or PPIA, used for normalization. Briefly, the A673 or K562 cell line was treated with various compounds described herein (e.g., compounds of Formula (I), (II), (III), (IV)). After treatment, the levels of the HTT, MYB, or SMN2 mRNA targets were determined from each sample of cell lysate by cDNA synthesis followed by qPCR.
(§2) The A673 cell line was cultured in DMEM with 10% FBS. Cells were diluted with full growth media and plated in a 96-well plate (15,000 cells in 100ul media per well). The plate was incubated at 37° C. with 5% CO2 for 24 hours to allow cells to adhere. An 11-point 3-fold serial dilution of the compounds was made in DMSO then diluted in media in an intermediate plate. Compounds were transferred from the intermediate plate to the cell plate with the top dose at a final concentration of 10 uM in the well. Final DMSO concentration was kept at or below 0.25%. The cell plate was returned to the incubator at 37° C. with 5% CO2 for an additional 24 hours.
(§3) The K562 cell line was cultured in IMDM with 10% FBS. For K562, cells were diluted with full growth media and plated in either a 96-well plate (50,000 cells in 50 uL media per well) or a 384-well plate (8,000-40,000 cells in 45 uL media per well). An 11-point 3-fold serial dilution of the compounds were made in DMSO then diluted in media in an intermediate plate.
(§4) Compound was transferred from the intermediate plate to the cell plate with the top dose at a final concentration of 10 uM in the well. Final DMSO concentration was kept at or below 0.25%.
(§5) Final volume was 100 uL for 96-well plate and 50 uL for 384-well plate. The cell plate was then placed in an incubator at 37° C. with 5% CO2 for 24 hours.
(§6) The cells were then gently washed with 50 uL-100 uL cold PBS before proceeding to addition of lysis buffer. 30 uL-50 μL of room temperature lysis buffer with DNAse I (and optionally RNAsin) was added to each well. Cells were shaken/mixed thoroughly at room temperature for 5-10 minutes for lysis to take place and then 3 uL-5 μL of room temperature stop solution was added and wells were shaken/mixed again. After 2-5 minutes, the cell lysate plate was transferred to ice for RT-qPCR reaction setup. The lysates could also be frozen at −80° C. for later use.
(§7) In some cases, a direct lysis buffer was used. An appropriate volume of 3× lysis buffer (10 mM Tris, 150 mM NaCl, 1.5%-2.5% Igepal and 0.1-1 U/uL RNAsin, pH 7.4) was directly added to either K562 or A673 cells in media and mixed by pipetting 3 times. The plates were then incubated at room temperature with shaking/rocking for 20-50 minutes to allow for lysis to take place. After this time, the cell lysate plate was transferred to ice to set up for the RT-qPCR reactions. The lysates could also be frozen at −80° C. for later use.
(§8) To set up 10 uL RT-qPCR reactions, cell lysates were transferred to 384-well qPCR plates containing the master mix according to the table below. The plates were sealed, gently vortexed, and spun down before the run. The volumes were adjusted accordingly in some instances where the reaction was carried in 20 μL. The table below summarizes the components of the RT-qPCR reactions: […]

[2] = tested on: Target C mRNA; test: RT-qPCR splicing assay panel, Target C canonical junction (CJ) mRNA; conditions: Homo sapiens
Experimental: as §1, §2, §3, §4, §5, §6, §7, §8

[3] = tested on: SMN2 mRNA; test: RT-qPCR splicing assay panel, SMN2 canonical junction (CJ) mRNA; conditions: Homo sapiens
Experimental: as §1, §2, §3, §4, §5, §6, §7, §8

[4] = tested on: MYB mRNA; test: RT-qPCR splicing assay, MYB canonical (CJ) and alternative (AJ) junction mRNA; conditions: Homo sapiens; for AC50: read-out: MYB AJ (AC50, increase in AJ mRNA)
Experimental: as §1, §2, §3, §4, §5, §6, §7, §8

[5] = 24 h, Table 3A, A673 or K562 cells, 24 h treatment
[6] = 24 h, Table 3A, A673 or K562 cells, 24 h treatment, read-out: HTT CJ (IC50, decrease in CJ mRNA)
[7] = canonical junction (CJ) mRNA, RT-qPCR panel, Table 4A, read-out: HTT, decrease in CJ mRNA levels, IC50
[8] = canonical junction (CJ) mRNA, RT-qPCR panel, Table 4A, read-out: Target C, decrease in CJ mRNA levels, IC50
[9] = canonical junction (CJ) mRNA, RT-qPCR panel, Table 4A, read-out: SMN2, decrease in CJ mRNA levels, IC50
[10] = 24 h, Table 3A, A673 or K562 cells, 24 h treatment, read-out: MYB CJ (IC50, decrease in CJ mRNA)
[11] = canonical junction (CJ) mRNA, RT-qPCR panel, Table 4A, read-out: MYB, decrease in CJ mRNA levels, IC50
[12] = 24 h, Table 3B, A673 or K562 cells, 24 h treatment

IC50 [1, 6] [nM]	IC50 [1, 7] [nM]	IC50 [2, 8] [nM]	IC50 [3, 9] [nM]	IC50 [4, 10] [nM]	IC50 [4, 11] [nM]	IC50 ([1]; 24 h, Table 3B, A673 or K562 cells, 24 h treatment, read-out: HTT CJ (IC50, decrease in CJ mRNA)) [nM]	IC50 ([1]; Table 4B, gene panel, read-out: HTT (IC50, decrease in CJ mRNA levels)) [nM]	IC50 ([2]; Table 4B, gene panel, read-out: Target C (IC50, decrease in CJ mRNA levels)) [nM]	IC50 ([3]; Table 4B, gene panel, read-out: SMN2 (IC50, decrease in CJ mRNA levels)) [nM]	IC50 ([4]; 24 h, Table 3B, A673 or K562 cells, 24 h treatment, read-out: MYB CJ (IC50, decrease in CJ mRNA)) [nM]	IC50 ([4]; Table 4B, gene panel, read-out: MYB (IC50, decrease in CJ mRNA levels)) [nM]	SMILES	AC50 [1, 5] [nM]	AC50 [4, 5] [nM]	AC50 [1, 12] [nM]	AC50 [4, 12] [nM]
< 100	< 100	100 to 1000	< 100	100 to 1000	100 to 1000							Oc1cc(-c2cn[nH]c2)ccc1-c1ccc(N2CCN[C@@H](C3CC3)C2)nn1 [Compound 263]	< 100	100 to 1000		
< 100	< 100	100 to 1000	< 100	100 to 1000	100 to 1000							Oc1cc(-c2cn[nH]c2)ccc1-c1ccc(N2CCC(NC3(CF)CC3)C2)nn1 (centres unmarked) [Compound 112, 2-[6-(3-{[1-(fluoromethyl)cyclopropyl]amino}pyrrolidin-1-yl)pyridazin-3-yl]-5-(1H-pyrazol-4-yl)phenol]	< 100	< 100		
< 100	< 100	100 to 1000	< 100	100 to 1000	100 to 1000							Oc1cc(-c2cn[nH]c2)ccc1-c1ccc(N2CCC(NCC3CC3)C2)nn1 (centres unmarked) [Compound 108, 2-(6-{3-[(cyclopropylmethyl)amino]pyrrolidin-1-yl}pyridazin-3-yl)-5-(1H-pyrazol-4-yl)phenol; methane]	< 100	100 to 1000		
< 100	< 100	100 to 1000	< 100	100 to 1000	100 to 1000							CN(C1CCC1)[C@H]1CCN(c2ccc(-c3ccc(-c4cn[nH]c4)cc3O)nn2)C1 [Compound 294, 2-{6-[(3S)-3-[cyclobutyl(methyl)amino]pyrrolidin-1-yl]pyridazin-3-yl}-5-(1H-pyrazol-4-yl)phenol]	100 to 1000	100 to 1000		
						< 100	< 100	100 to 1000	< 100	100 to 1000	100 to 1000	Cc1nc2ccc(-c3ccc(N4CCC(NC(C)(C)C)C4)nn3)nc2o1 (centres unmarked) [Compound 832]			100 to 1000	100 to 1000
< 100	< 100	< 100	< 100	100 to 1000	100 to 1000							Cc1ncc(-c2cc(O)c(-c3ccc(N4CC[C@@](C)(NCC5CC5)C4)nn3)cc2F)s1 (single isomer, unassigned) [Compound 399]	< 100	100 to 1000		
< 100	< 100	< 100	< 100	100 to 1000	100 to 1000							CNc1cc(-c2ccc(-c3ccc(N4CC[C@H](NC(C)(C)C)C4)nn3)c(O)c2)ncn1 [Compound 436, 2-{6-[(3S)-3-(tert-butylamino)pyrrolidin-1-yl]pyridazin-3-yl}-5-[6-(methylamino)pyrimidin-4-yl]phenol]	< 100	100 to 1000		
< 100	< 100	< 100	< 100	< 100	< 100							CN(C1CCN(c2ccc(-c3cc(F)c(-c4cn[nH]c4)cc3O)nn2)C1)C(C)(C)C (stereo in doubt) [Compound 120, 2-{6-[(3R)-3-[tert-butyl(methyl)amino]pyrrolidin-1-yl]pyridazin-3-yl}-4-fluoro-5-(1H-pyrazol-4-yl)phenol]	< 100	< 100		
< 100	< 100	< 100	< 100	100 to 1000	100 to 1000							COc1cc(-c2ccc(-c3ccc(N4CC[C@H](NC5(C)CCC5)C4)nn3)c(O)c2)cnn1 [Compound 289, (S)-5-(6-methoxypyridazin-4-yl)-2-(6-(3-((1-methylcyclobutyl)amino)pyrrolidin-1-yl)pyridazin-3-yl)phenol]	100 to 1000	100 to 1000		
100 to 1000	100 to 1000	1000 to 10000	100 to 1000	1000 to 10000	1000 to 10000							COc1nccc(-c2ccc(-c3ccc(N4CCC(NCC5CC5)C4)nn3)c(O)c2)n1 (centres unmarked) [Compound 368]	100 to 1000	1000 to 10000		
100 to 1000	100 to 1000	1000 to 10000	100 to 1000	> 10000	> 10000							COc1cc(-c2ccc(-c3cc(C#N)c(N4CC[C@H](NC5CCC5)C4)nn3)c(O)c2)cnn1 [Compound 343, 3-[(3S)-3-(cyclobutylamino)pyrrolidin-1-yl]-6-[2-hydroxy-4-(6-methoxypyridazin-4-yl)phenyl]pyridazine-4-carbonitrile]	1000 to 10000	> 10000		
< 100	< 100	< 100	< 100	100 to 1000	100 to 1000							COc1cc(-c2ccc(-c3ccc(N4CC[C@@H](NC5(C)CCC5)C4)nn3)c(O)c2)ncn1 [Compound 383, 5-(6-methoxypyrimidin-4-yl)-2-{6-[(3R)-3-[(1-methylcyclobutyl)amino]pyrrolidin-1-yl]pyridazin-3-yl}phenol]	< 100	100 to 1000		
< 100	< 100	100 to 1000	< 100	100 to 1000	100 to 1000							COc1cc(-c2ccc(-c3ccc(N4CC[C@@H](NCC5CC5)C4)nn3)c(O)c2)ncn1 [Compound 382, 2-{6-[(3R)-3-[(cyclopropylmethyl)amino]pyrrolidin-1-yl]pyridazin-3-yl}-5-(6-methoxypyrimidin-4-yl)phenol]	100 to 1000	100 to 1000		
